Data taken from patent US9439904B2, “Pyrimidine compounds and their use as gamma secretase modulators” (Acturum Life Science AB, priority 2013, dated 2016).

What was measured:
Aβ42 [1] = assay: HEK assay: Aβ42 secreted to cell medium, Meso Scale Discovery electrochemiluminescence; assay type: cell-based; conditions: Homo sapiens, HEK293; HEK cell line stably expressing APPswe; 4-6 hours incubation with test compound; read-out: pIC50 Aβ42 HEK assay (converted)
Experimental: Compounds were diluted in 100% DMSO and stored at […] prior to use. Human Embryonic Kidney (HEK) cell line stably expressing APP with the Swedish mutation (APPswe) was cultured using Dulbecco's Modified Eagles medium (DMEM) supplied with […] glucose, Na-pyruvate and GlutaMAX, 10% Foetal bovine serum, 100 U/mL penicillin-streptomycin (PEST), 1× non-essential amino acids (NEAA), […] Hepes, 100 μg/mL Zeocine. Cells at about 80% confluence were washed with PBS, detached from culture flasks using 1× Trypsin/EDTA diluted in PBS, re-suspended in cell media and plated in 384-well poly-d-lysine coated cell culture plates at about 10000-15000 cells/well, in 25 μL cell media. Optionally, cryo-preserved cells (frozen and stored at −140° C. in 90% cell media and 10% DMSO) were thawed, washed and plated as above. Next the cells were incubated for 15-24 h at 37° C. and 5% CO2, after which cell medium was changed. Fresh medium containing test compound diluted ×200 from prepared compound plate was added to the cells before further incubation for 4-6 hours at 37° C. and 5% CO2. After incubation with test compound the amount of Aβ peptides, including Aβ42, Aβ40, Aβ39, Aβ38 and Aβ37, secreted to cell medium was analyzed using the electrochemiluminescence assay technology from Meso Scale Discovery Technology, in combination with specific antibodies raised against the different Aβ peptides. Potential cytotoxic effects of the compounds were assayed by measuring the ATP content (ViaLight) from cell lysate.

Aβ42 [2] = assay: PCN assay: Aβ42 secreted by primary cortical neuronal cells, ELISA; assay type: cell-based; conditions: primary cortical neuronal cells from 16-day mouse embryos; 16-20 hours incubation with test compound; read-out: pIC50 Aβ42 PCN assay (converted)
Experimental: Compounds were diluted in 100% DMSO and stored at […] prior to use. Primary cortical neuronal cells (PCN) were isolated from 16-day mouse embryos and cultured in Ham's F12 media containing 10% Foetal bovine serum, 10 mM Hepes, 2 mM L-glutamine and 100 U/mL Penicillin-Streptomycin. 150000-250000 cells/well, in 200 μL cell media were seeded onto 96-well poly-D-Lysine coated plates. After incubation at 37° C., 5% CO2 for five days, the media was exchanged for fresh medium containing test compound diluted ×100, before further incubation for 16-20 hours at 37° C. and 5% CO2. After incubation with test compound the amount of […] secreted to cell medium was analyzed using the solid phase sandwich Enzyme-Linked-Immuno-Sorbent Assay (ELISA)-kit from Invitrogen for detection of mouse βAmyloid 1-42. Potential cytotoxic effects of the compounds were assayed by measuring the ATP content (Via Light) from cell lysate.

Q: Which results are given for `COc1cc(Nc2nc(COCC3CC3)cc(N3CCC3)n2)ccc1-n1cnc(C)c1` [Example 1, 4-(Azetidin-1-yl)-6-((cyclopropylmethoxy)methyl)-N-(3-methoxy-4-(4-methyl-1H-imidazol-1-yl)phenyl)pyrimidin-2-amine]?
A: IC50 (Aβ42 [1]): 0.02 µM; IC50 (Aβ42 [2]): 0.0501 µM

Q: What does the source list for `CNc1cc(COCC(F)(F)F)nc(Nc2ccc(-n3cnc(C)c3)cc2)n1` [Example 2, N^4-Methyl-N^2-(4-(4-methyl-1H-imidazol-1-yl)phenyl)-6-((2,2,2-trifluoroethoxy)methyl)-pyrimidine-2,4-diamine]?
A: IC50 (Aβ42 [1]): 0.0316 µM; IC50 (Aβ42 [2]): 0.0631 µM

Q: `COc1cc(Nc2nc(CC#N)cc(COCC(F)(F)F)n2)ccc1-n1cnc(C)c1` [Example 3, 2-[2-[3-Methoxy-4-(4-methylimidazol-1-yl)anilino]-6-(2,2,2-trifluoroethoxymethyl)pyrimidin-4-yl]acetonitrile] was tested. Which IC50 (Aβ42 [1]) did it give?
A: 0.0251 µM

Q: What about the IC50 (Aβ42 [2]) of the same molecule?
A: 0.0398 µM

Q: Which IC50 (Aβ42 [1]) does the source give for `CNc1nc(Nc2ccc(-n3cnc(C)c3)c(OC)c2)nc(COCC(F)(F)F)c1C` [Example 4, N^2-(3-Methoxy-4-(4-methyl-1H-imidazol-1-yl)phenyl)-N^4,5-dimethyl-6-((2,2,2-trifluoroethoxy)methyl)pyrimidine-2,4-diamine] here?
A: 0.0251 µM

Q: What about the IC50 (Aβ42 [2]) of the same molecule?
A: 0.01 µM

Q: Which IC50 (Aβ42 [1]) does the source give for `COc1cc(Nc2nc(COCC(F)(F)F)c(C)c(C(C)(C)O)n2)ccc1-n1cnc(C)c1` [Example 5, 2-(2-(3-Methoxy-4-(4-methyl-1H-imidazol-1-yl)phenylamino)-5-methyl-6-((2,2,2-trifluoroethoxy)methyl)pyrimidin-4-yl)propan-2-ol] here?
A: 0.02 µM

Q: And the IC50 (Aβ42 [2])?
A: 0.02 µM

Q: `COc1cc(Nc2nc(COCC(F)(F)F)c(C)c(C(C)O)n2)ccc1-n1cnc(C)c1` (centres unmarked) [Example 6, 1-(2-(3-Methoxy-4-(4-methyl-1H-imidazol-1-yl)phenylamino)-5-methyl-6-((2,2,2-trifluoroethoxy)methyl)pyrimidin-4-yl)ethanol] was tested. Which IC50 (Aβ42 [1]) did it give?
A: 0.0316 µM

Q: And the IC50 (Aβ42 [2])?
A: 0.0316 µM

Q: What does the source list for `COc1cc(Nc2nc(C(C)O)cc(C(C)OCC(F)(F)F)n2)ccc1-n1cnc(C)c1` (centres unmarked) [Example 7, 1-(2-(3-Methoxy-4-(4-methyl-1H-imidazol-1-yl)phenylamino)-6-(1-(2,2,2-trifluoroethoxy)-ethyl)pyrimidin-4-yl)ethanol]?
A: IC50 (Aβ42 [1]): 0.0316 µM; IC50 (Aβ42 [2]): 0.0316 µM

Q: Which IC50 (Aβ42 [1]) does the source give for `COc1cc(Nc2nc(COCC(F)(F)F)cc(NC(C)C)n2)ccc1-n1cnc(C)c1` [Example 8, N^4-Isopropyl-N^2-(3-methoxy-4-(4-methyl-1H-imidazol-1-yl)phenyl)-6-((2,2,2-trifluoroethoxy)methyl)pyrimidine-2,4-diamine] here?
A: 0.0316 µM

Q: What about the IC50 (Aβ42 [2]) of the same molecule?
A: 0.02 µM

Q: `CNc1cc(COCC(F)(F)F)nc(Nc2ccc(-n3cnc(C)c3)c(OC)c2)n1` [Example 9, N^2-(3-Methoxy-4-(4-methyl-1H-imidazol-1-yl)phenyl)-N4-methyl-6-((2,2,2-trifluoroethoxy)methyl)pyrimidine-2,4-diamine] was tested. Which IC50 (Aβ42 [1]) did it give?
A: 0.0251 µM

Q: And the IC50 (Aβ42 [2])?
A: 0.0316 µM

Q: Which IC50 (Aβ42 [1]) does the source give for `COc1cc(Nc2nc(CO)cc(COCC(F)(F)F)n2)ccc1-n1cnc(C)c1` [Example 10, (2-(3-Methoxy-4-(4-methyl-1H-imidazol-1-yl)phenylamino)-6-((2,2,2-trifluoroethoxy)methyl)pyrimidin-4-yl)methanol] here?
A: 0.0631 µM

Q: And the IC50 (Aβ42 [2])?
A: 0.0316 µM

Q: Which IC50 (Aβ42 [1]) does the source give for `COc1cc(Nc2nc(C(C)OCC(F)(F)F)cc(C(C)(C)O)n2)ccc1-n1cnc(C)c1` (centres unmarked) [Example 11, 2-(2-(3-Methoxy-4-(4-methyl-1H-imidazol-1-yl)phenylamino)-6-(1-(2,2,2-trifluoroethoxy)ethyl)pyrimidin-4-yl)propan-2-ol] here?
A: 0.0251 µM

Q: What about the IC50 (Aβ42 [2]) of the same molecule?
A: 0.0501 µM

Q: `COc1cc(Nc2nc(COCC(F)(F)F)cc(C(O)C(F)(F)F)n2)ccc1-n1cnc(C)c1` (centres unmarked) [Example 12, 2,2,2-Trifluoro-1-(2-(3-methoxy-4-(4-methyl-1H-imidazol-1-yl)phenylamino)-6-((2,2,2-trifluoroethoxy)methyl)pyrimidin-4-yl)ethanol] was tested. Which IC50 (Aβ42 [1]) did it give?
A: 0.0794 µM

Q: What about the IC50 (Aβ42 [2]) of the same molecule?
A: 0.0398 µM

Q: `COc1cc(Nc2nc(COCC(F)(F)F)cc(C(O)CC3CC3)n2)ccc1-n1cnc(C)c1` (centres unmarked) [Example 13, 2-Cyclopropyl-1-(2-(3-methoxy-4-(4-methyl-1H-imidazol-1-yl)phenylamino)-6-((2,2,2-trifluoroethoxy)methyl)pyrimidin-4-yl)ethanol] was tested. Which IC50 (Aβ42 [1]) did it give?
A: 0.02 µM

Q: And the IC50 (Aβ42 [2])?
A: 0.0501 µM

Q: How did the IC50 (Aβ42 [2]) turn out when `COc1cc(Nc2nc(COCC(F)(F)F)cc(C(O)C(C)C)n2)ccc1-n1cnc(C)c1` (centres unmarked) [Example 14, 1-(2-(3-Methoxy-4-(4-methyl-1H-imidazol-1-yl)phenylamino)-6-((2,2,2-trifluoroethoxy)methyl)pyrimidin-4-yl)-2-methylpropan-1-ol] was run?
A: 0.0398 µM

Q: How did the IC50 (Aβ42 [1]) turn out when `COc1cc(Nc2nc(COCC(F)(F)F)cc(C(C)(C)O)n2)ccc1-n1cnc(C)c1` [Example 15, 2-(2-(3-Methoxy-4-(4-methyl-1H-imidazol-1-yl)phenylamino)-6-((2,2,2-trifluoroethoxy)-methyl)pyrimidin-4-yl)propan-2-ol] was run?
A: 0.0316 µM

Q: And the IC50 (Aβ42 [2])?
A: 0.0501 µM

Q: With `COc1cc(Nc2nc(COCC3CC3)cc(COCC(F)(F)F)n2)ccc1-n1cnc(C)c1` [Example 16, 4-((Cyclopropylmethoxy)methyl)-N-(3-methoxy-4-(4-methyl-1H-imidazol-1-yl)phenyl)-6-((2,2,2-trifluoroethoxy)methyl)pyrimidin-2-amine] as the molecule, how does the IC50 (Aβ42 [1]) read?
A: 0.0501 µM

Q: And the IC50 (Aβ42 [2])?
A: 0.0794 µM

Q: What does the source list for `COc1cc(Nc2nc(COCC3CC(F)(F)C3)cc(C(C)(C)O)n2)ccc1-n1cnc(C)c1` [Example 17, 2-(6-(((3,3-Difluorocyclobutyl)methoxy)methyl)-2-(3-methoxy-4-(4-methyl-1H-imidazol-1-yl)phenylamino)pyrimidin-4-yl)propan-2-ol]?
A: IC50 (Aβ42 [1]): 0.2 µM; IC50 (Aβ42 [2]): 0.2 µM

Q: For `COc1cc(Nc2nc(COCCC(F)(F)F)cc(C(C)(C)O)n2)ccc1-n1cnc(C)c1` [Example 18, 2-(2-(3-Methoxy-4-(4-methyl-1H-imidazol-1-yl)phenylamino)-6-((3,3,3-trifluoropropoxy)-methyl)pyrimidin-4-yl)propan-2-ol], which IC50 (Aβ42 [1]) is on record?
A: 0.0631 µM

Q: And the IC50 (Aβ42 [2])?
A: 0.1 µM

Q: `COc1cc(Nc2nc(COCC3CC(F)(F)C3)cc(C(C)(C)O)n2)ccc1-c1cnnc(C)c1` [Example 19, 2-(6-(((3,3-Difluorocyclobutyl)methoxy)methyl)-2-(3-methoxy-4-(6-methylpyridazin-4-yl)phenylamino)pyrimidin-4-yl)propan-2-ol] was tested. Which IC50 (Aβ42 [1]) did it give?
A: 0.2 µM

Q: Which IC50 (Aβ42 [1]) does the source give for `COc1cc(Nc2nc(COCC(F)(F)F)cc(N3CCC3)n2)ccc1-n1cnc(C)c1` [Example 20, 4-(Azetidin-1-yl)-N-(3-methoxy-4-(4-methyl-1H-imidazol-1-yl)phenyl)-6-((2,2,2-trifluoroethoxy)methyl)pyrimidin-2-amine] here?
A: 0.0398 µM

Q: And the IC50 (Aβ42 [2])?
A: 0.1 µM

Q: Which results are given for `COc1cc(Nc2nc(COCC(F)(F)F)cc(N3CCC3)n2)ccc1-c1cnnc(C)c1` [Example 21, 4-(Azetidin-1-yl)-N-(3-methoxy-4-(6-methylpyridazin-4-yl)phenyl)-6-((2,2,2-trifluoroethoxy)methyl)pyrimidin-2-amine]?
A: IC50 (Aβ42 [1]): 0.126 µM; IC50 (Aβ42 [2]): 0.0501 µM

Q: How did the IC50 (Aβ42 [1]) turn out when `COc1cc(Nc2nc(COCC(F)(F)F)cc(CN(C)C)n2)ccc1-n1cnc(C)c1` [Example 41, 4-((Dimethylamino)methyl)-N-(3-methoxy-4-(4-methyl-1H-imidazol-1-yl)phenyl)-6-((2,2,2-trifluoroethoxy)methyl)pyrimidin-2-amine] was run?
A: 0.158 µM
